In doi:10.1101/2023.03.04.531071v1 (biorxiv, 2023) one finds IC50 and Ki data, which are given here for two compounds.

The target of experiment [1] is T1, Xanthine oxidase (XO) (Bos taurus, UniProt P80457). The experiment is described as follows: uric acid formation, absorbance […] nm. It is filed as biochemical.
For experiment [2], the target named is T1, Xanthine oxidase (XO). The experiment is described as follows: uric acid formation, Morrison fit. It is filed as biochemical.

The IC50 is the concentration that inhibits the measured activity by half. The Ki is a measure of affinity in units of concentration, obtained from inhibition or displacement. Higher therefore signals lower affinity.

SMILES strings stand for the structures.

T1 sequence (P80457 2-1332): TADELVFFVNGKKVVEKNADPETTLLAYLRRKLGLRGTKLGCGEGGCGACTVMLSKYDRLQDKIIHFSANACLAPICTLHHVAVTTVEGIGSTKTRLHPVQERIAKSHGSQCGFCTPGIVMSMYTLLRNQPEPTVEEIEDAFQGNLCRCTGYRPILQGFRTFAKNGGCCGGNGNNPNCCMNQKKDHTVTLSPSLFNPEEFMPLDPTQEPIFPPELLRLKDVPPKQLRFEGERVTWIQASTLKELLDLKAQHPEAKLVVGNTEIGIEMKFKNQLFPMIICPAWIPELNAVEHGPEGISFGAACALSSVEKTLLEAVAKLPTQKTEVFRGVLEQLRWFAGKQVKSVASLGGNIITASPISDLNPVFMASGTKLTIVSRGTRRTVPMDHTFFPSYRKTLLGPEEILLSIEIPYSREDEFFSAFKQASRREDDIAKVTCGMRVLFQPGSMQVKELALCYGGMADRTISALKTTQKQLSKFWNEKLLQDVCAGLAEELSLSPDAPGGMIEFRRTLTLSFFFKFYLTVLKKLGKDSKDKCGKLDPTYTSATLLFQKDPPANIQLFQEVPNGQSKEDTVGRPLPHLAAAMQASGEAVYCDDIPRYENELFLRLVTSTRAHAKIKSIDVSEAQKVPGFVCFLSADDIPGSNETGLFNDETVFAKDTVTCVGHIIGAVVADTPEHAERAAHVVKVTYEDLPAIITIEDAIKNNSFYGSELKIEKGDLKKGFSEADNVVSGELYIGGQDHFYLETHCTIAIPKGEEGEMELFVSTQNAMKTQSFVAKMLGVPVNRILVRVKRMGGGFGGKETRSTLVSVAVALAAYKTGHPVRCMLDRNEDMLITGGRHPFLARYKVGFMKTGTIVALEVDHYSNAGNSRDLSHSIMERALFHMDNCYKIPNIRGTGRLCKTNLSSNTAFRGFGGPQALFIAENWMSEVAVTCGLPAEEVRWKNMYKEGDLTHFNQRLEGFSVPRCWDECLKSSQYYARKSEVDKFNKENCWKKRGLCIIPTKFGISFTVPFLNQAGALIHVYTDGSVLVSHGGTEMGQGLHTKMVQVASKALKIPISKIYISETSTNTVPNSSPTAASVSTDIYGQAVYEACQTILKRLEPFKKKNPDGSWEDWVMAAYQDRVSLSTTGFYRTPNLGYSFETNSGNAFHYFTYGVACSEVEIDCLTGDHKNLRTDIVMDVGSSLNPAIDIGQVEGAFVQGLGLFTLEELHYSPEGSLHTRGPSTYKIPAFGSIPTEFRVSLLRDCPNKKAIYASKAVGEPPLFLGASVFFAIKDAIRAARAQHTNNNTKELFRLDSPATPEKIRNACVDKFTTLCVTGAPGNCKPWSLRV

Compound `Cc1cc(O)c2c(c1)C(=O)c1cccc(O)c1C2=O` [Chrysophanol] returned a 50% inhibitory concentration (IC50) in experiment [1] of 200.9 ± 0.04 µM. The compound further showed an inhibitory constant (Ki) in experiment [2] of 38.7 ± 2.71 µM.

`COc1cc(C)cc2c1C(=O)c1c(O)cccc1C2=O` [1-O-methyl chrysophanol] displayed a 50% inhibitory concentration (IC50) in experiment [1] of 24.8 ± 0.072 µM. The same compound registered an inhibition constant (Ki) in experiment [2] of 2.22 ± 0.307 µM.
